Test in all cases: NCI tumour cell line growth inhibition, 48 h
Assay [1] has as its system DMS 114 small cell lung.
In assay [2] the test system is KM20L2 colon.
Assay [3] has as its system M19-MEL melanoma.
Assay [4] relates to SNB-78 CNS.
In assay [5] the test system is DU-145 prostate.
Assay [6] has as its system HS 578T breast.
Assay [7] deals with MDA-MB-231 breast.
In assay [8] the test system is MDA-MB-435.
For assay [9], the system named is MDA-N.
The test system of assay [10] is A498 renal.
Assay [11] concerns BT-549 breast.
The subject of assay [12] is XF 498 CNS.

“And” between values parts separate entries of the source, which are not always exact repeats. Identical values can stand only once.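 The compound was tested at five concentrations on cells cultured in 96-well plates, with a 48-hour exposure period. Here, GI50 denotes the concentration required for 50% inhibition of growth. TGI: total growth inhibition.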

For `Cc1ccc(NC(=O)CC/C(CC(=O)C(C)(C)C)=N/NC(=O)c2cc3ccccc3cc2O)cc1C`, the TGI in assay [1], in assay [2], in [3] and in assay [4] was greater than 100 µM each time.
`CC1(C)N=C(/C(Cl)=[N+](/[O-])C(=O)c2ccc(Cl)cc2)C(C)(C)N1O`: the TGI in assay [5] is greater than 100 µM; in assay [6] it was greater than 100 µM; in assay [7] it was 40 µM; in assay [8] it was 52.4 µM; in [9], 32.4 µM.
With `COC(=O)C(Cc1ccccc1)NC(=O)C(CNC(=O)OCc1ccccc1)C(=O)OCc1ccccc1` (stereo unspecified), the TGI in [10] is greater than 100 µM; in [11] it was greater than 100 µM; in [5], greater than 100 µM; in assay [6], greater than 100 µM; in assay [7], > 100 µM and 64.6 µM; in [8] it was greater than 100 µM. Moreover, the TGI in assay [9] was greater than 100 µM. Besides, the GI50 in [6] is 59 µM; in assay [8], > 100 µM and 44.5 µM.
Consider `COc1cc(C=O)cc(C=Nc2ccc(Br)cc2)c1O`, for which the TGI in assay [10] was 40.7 µM; in assay [11] it was greater than 100 µM; in [5] it was greater than 100 µM; in [6], 5.26 µM; in [7], 37.8 µM; in assay [8] it was 32.5 µM. In [9], this compound had a TGI of 35.7 µM.
For the compound `CC1CC(c2ccccc2)=Nc2ccccc2S1` (stereo unspecified), the TGI in [10], in assay [1], in [2], in [3], in assay [4] and in [12] was greater than 100 µM in each case.
Consider `O=C(N/N=C/c1ccccc1)c1c(F)c(F)c(F)c(F)c1F`, for which the TGI in assay [10], in assay [11], in [5], in assay [6], in [7] and in assay [8] was greater than 100 µM each time. Moreover, the TGI in assay [9] is greater than 100 µM.
For the compound `CCC12CCC[C@@]13C=C[C@H](O3)C(C)(C)C2=O` (stereo partly specified), the TGI in assay [1], in assay [2], in assay [3] and in [4] was greater than 100 µM throughout.
`[C-]#[O+].[Cl][Sn]([Cl])[Cl].[Cl][Sn]([Cl])[Cl].[Pt].c1cnc2c(c1)ccc1cccnc12`: the TGI in assay [10] is 13.3 µM; in [1], greater than 39.4 µM; in assay [2], 4.54 µM; in [3], greater than 31.6 µM; in assay [4], 66 µM; in assay [12], 44.3 µM. The GI50 in [1] was 4.14 µM; in assay [2] it was 1.97 µM; in assay [3], 3.25 µM; in [4], 15.8 µM; in assay [12], 9.1 µM.
`O=C1c2ccccc2-c2c1c1ccccc1c(=O)n2CCCNCCNCCCn1c2c(c3ccccc3c1=O)C(=O)c1ccccc1-2` showed a TGI in assay [5] of 1.07 µM. For the same compound, in assay [7], the GI50 was less than 0.0381 µM and the TGI was determined as 0.437 µM.

Values taken from PubChem BioAssay (NCI).
